From article PMC10616201, “Antioxidant and α-glucosidase inhibitory activities of compound isolated from Stachytarpheta jamaicensis (L) Vahl. leaves” (Scientific Reports, 2023)

Target: T1, α-glucosidase (EC 3.2.1.20; rat intestinal acetone powder)
T1 construct: gene Si; crude supernatant of rat intestinal acetone powder (Sigma 1639) in normal saline; native, unpurified; maltase activity read as glucose release
Experiment: glucose release from maltose, glucose kit, absorbance […] nm
Assay type: biochemical
Conditions: 10 mM maltose, 0.1 M buffer pH 6.9, 10 min, crude rat intestinal supernatant

COC(=O)C1=CO[C@@H](O[C@@H]2O[C@H](CO)[C@@H](O)[C@H](O)[C@H]2O)[C@H]2[C@]1(O)[C@H](O)C[C@]2(C)O [compound 1, 6β-hydroxyipolamiide]
α-Glucosidase inhibition / IC50: 537.79 ± 45.04 µg/mL
